Results on five molecules are retold here after ChEMBL document CHEMBL3817754, “Synthesis and evaluation of donepezilferulic acid hybrids as multi-target-directed ligands against Alzheimer's disease” (Medchemcomm, 2016).

For data set [1], the target named is Cholinesterase (Equus caballus) (UniProt P81908). Kind of data set: Inhibition of equine serum butyrylcholinesterase at 1000 uM preincubated for 5 mins followed by addition of S-butyrylthiocholine iodide as substrate measured after 60 to 120 mins by Ellmans method.
In data set [2] the target is Acetylcholinesterase (Electrophorus electricus) (UniProt O42275). Kind of data set: Inhibition of electric eel acetylcholinesterase at 1000 uM preincubated for 5 mins followed by addition of acetylthiocholine iodide as substrate measured after 60 to 120 mins by Ellmans method. A general note: Ellman's reagent forms a yellow product with free thiols.
Data set [3] concerns the target Cholinesterase (Equus caballus) (UniProt P81908). Kind of data set: Mixed-type inhibition of equine serum butyrylcholinesterase at 0.5 to 2 uM preincubated for 5 mins followed by addition of S-butyrylthiocholine iodide as substrate measured after 60 to 120 mins by Lineweaver-Burk plot analysis.
Data set [4] relates to PC-12. Description: Neuroprotective activity against H2O2 induced damage in […] PC12 cells assessed as cell viability at 1 to 10 uM preincubated for 4 hrs followed by H2O2 challenge for 20 hrs by MTT assay. It is filed as functional, cell-based. Conditions: Rattus norvegicus. A general note: Tetrazolium assays rely on reduction of a dye to a coloured formazan, in cell work by metabolically active cells.

Data set [5] can be described thus: Metal chelating activity assessed as copper-compound complex formation at 75 uM after 30 mins by UV-vis spectrometry. It is filed as physicochemical. Conditions: 0.5 h.
Data set [6] in a line: Metal chelating activity assessed as ferrous-compound complex formation at 75 uM after 30 mins by UV-vis spectrometry. It is filed as physicochemical. The following applies: 0.5 h.
The species named for data set [7] is Homo sapiens. Description: Selectivity index, ratio of IC50 for human serum butyrylcholinesterase to IC50 for human erythrocytes acetylcholinesterase.
The conditions of data set [8]: DPPH radical solution, 30 min. For orientation: The DPPH test is a chemical assay of radical scavenging.
Description: Antioxidant activity assessed as DPPH radical scavenging activity incubated in dark for 30 mins by spectrophotometry
The target in data set [9] is Cholinesterase (Equus caballus, UniProt P81908). Kind of data set: Inhibition of equine serum butyrylcholinesterase preincubated for 5 mins followed by addition of S-butyrylthiocholine iodide as substrate measured after 60 to 120 mins by Ellmans method.
Data set [10] in a line: Selectivity index, ratio of IC50 for equine serum butyrylcholinesterase to IC50 for electric eel acetylcholinesterase.
Data set [11] concerns the target Acetylcholinesterase (Electrophorus electricus, UniProt O42275). Kind of data set: Inhibition of electric eel acetylcholinesterase preincubated for 5 mins followed by addition of acetylthiocholine iodide as substrate measured after 60 to 120 mins by Ellmans method.
The target of data set [12] is Cholinesterase (Homo sapiens, UniProt P06276). Kind of data set: Inhibition of human serum butyrylcholinesterase preincubated for 5 mins followed by addition of S-butyrylthiocholine iodide as substrate measured after 60 to 120 mins by Ellmans method.
The nature of data set [13]: Metal chelating activity assessed as zinc-compound complex formation at 75 uM after 30 mins by UV-vis spectrometry. It is filed as physicochemical. Conditions: 0.5 h.
The target in data set [14] is Acetylcholinesterase (Electrophorus electricus) (UniProt O42275). Description: Mixed-type inhibition of electric eel acetylcholinesterase at 0.2 to 0.8 uM preincubated for 5 mins followed by addition of acetylthiocholine iodide as substrate measured after 60 to 120 mins by Lineweaver-Burk plot analysis.
Data set [15] in a line: in vitro. The following applies: PAMPA.
In data set [16] the target is Acetylcholinesterase (Homo sapiens, UniProt P22303). Description: Inhibition of human erythrocytes acetylcholinesterase preincubated for 5 mins followed by addition of acetylthiocholine iodide as substrate measured after 60 to 120 mins by Ellmans method.
A short description of data set [17]: Cytotoxicity against […] PC12 cells assessed as cell viability at 20 uM after 24 hrs by MTT assay. It is filed as cell-based. Conditions: rat, pc-12, 24 h.
Data set [18] in a line: Metal chelating activity assessed as ferric-compound complex formation at 75 uM after 30 mins by UV-vis spectrometry. The following applies: 0.5 h. It counts as physicochemical.

Active and inactive are the calls of the source. The calls are words filed in the database; no cut-off is given here.

In general, IC50 refers to the point on the concentration scale where inhibition reaches its midpoint. The low end stands for inhibition by little substance, the high end for a need for much substance. A word on the Papp: it is a coefficient for how fast a substance crosses the barrier. A high value points to fast passage.

Sequence of Cholinesterase (Equus caballus) (P81908 whole entry): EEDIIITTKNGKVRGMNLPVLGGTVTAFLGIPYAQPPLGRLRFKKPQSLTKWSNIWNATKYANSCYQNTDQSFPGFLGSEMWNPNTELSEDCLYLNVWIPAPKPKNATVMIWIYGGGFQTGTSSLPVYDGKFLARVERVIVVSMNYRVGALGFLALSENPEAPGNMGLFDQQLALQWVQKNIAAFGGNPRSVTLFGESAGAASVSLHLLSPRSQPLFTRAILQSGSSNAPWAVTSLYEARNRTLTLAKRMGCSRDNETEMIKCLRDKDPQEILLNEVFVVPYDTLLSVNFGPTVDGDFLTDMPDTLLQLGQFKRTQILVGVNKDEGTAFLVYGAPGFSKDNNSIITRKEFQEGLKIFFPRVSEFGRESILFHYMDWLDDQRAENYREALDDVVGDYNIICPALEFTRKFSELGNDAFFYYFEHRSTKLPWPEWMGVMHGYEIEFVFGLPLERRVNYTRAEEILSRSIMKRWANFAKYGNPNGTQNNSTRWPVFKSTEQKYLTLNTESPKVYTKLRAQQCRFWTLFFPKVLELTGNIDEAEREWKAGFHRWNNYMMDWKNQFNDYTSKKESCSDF
Sequence of Acetylcholinesterase (Electrophorus electricus) (O42275 24-633 limits assumed): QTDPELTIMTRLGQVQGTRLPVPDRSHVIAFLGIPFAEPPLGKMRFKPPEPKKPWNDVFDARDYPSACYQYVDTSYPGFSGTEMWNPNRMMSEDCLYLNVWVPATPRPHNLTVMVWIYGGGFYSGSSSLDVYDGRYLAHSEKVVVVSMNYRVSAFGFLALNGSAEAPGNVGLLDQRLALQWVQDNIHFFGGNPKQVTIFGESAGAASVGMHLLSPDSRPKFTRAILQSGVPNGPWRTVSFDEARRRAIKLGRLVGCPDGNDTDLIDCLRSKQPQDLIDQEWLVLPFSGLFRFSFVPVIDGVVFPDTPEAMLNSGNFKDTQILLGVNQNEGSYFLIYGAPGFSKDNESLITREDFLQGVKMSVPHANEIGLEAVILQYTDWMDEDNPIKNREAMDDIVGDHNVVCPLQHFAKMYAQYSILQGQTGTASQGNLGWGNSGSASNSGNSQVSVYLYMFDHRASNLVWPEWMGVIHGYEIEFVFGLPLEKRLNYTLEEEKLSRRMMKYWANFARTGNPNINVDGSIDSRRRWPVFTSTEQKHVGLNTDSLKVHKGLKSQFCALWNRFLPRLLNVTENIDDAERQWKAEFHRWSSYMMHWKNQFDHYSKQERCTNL
Sequence of Cholinesterase (Homo sapiens, UniProt P06276) (P06276 whole entry): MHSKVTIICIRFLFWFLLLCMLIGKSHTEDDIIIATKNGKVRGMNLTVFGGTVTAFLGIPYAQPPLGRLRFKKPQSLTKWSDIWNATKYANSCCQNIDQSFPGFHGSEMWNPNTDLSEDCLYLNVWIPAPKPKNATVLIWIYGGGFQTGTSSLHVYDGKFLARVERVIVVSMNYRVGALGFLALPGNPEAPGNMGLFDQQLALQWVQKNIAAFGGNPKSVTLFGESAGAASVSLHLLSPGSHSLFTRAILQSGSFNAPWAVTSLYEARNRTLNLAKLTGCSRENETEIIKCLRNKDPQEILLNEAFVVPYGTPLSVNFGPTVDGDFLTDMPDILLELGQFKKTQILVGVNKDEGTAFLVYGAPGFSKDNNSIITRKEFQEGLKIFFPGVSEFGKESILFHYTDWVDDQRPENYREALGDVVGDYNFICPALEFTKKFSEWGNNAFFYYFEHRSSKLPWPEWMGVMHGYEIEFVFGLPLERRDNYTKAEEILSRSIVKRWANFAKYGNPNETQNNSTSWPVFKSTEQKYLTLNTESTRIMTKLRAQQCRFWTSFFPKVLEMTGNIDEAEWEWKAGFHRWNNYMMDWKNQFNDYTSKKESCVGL
Sequence of Cholinesterase (Equus caballus, UniProt P81908) (P81908 whole entry): as the sequence (P81908 whole entry) above
Sequence of Acetylcholinesterase (Homo sapiens, UniProt P22303) (P22303 whole entry): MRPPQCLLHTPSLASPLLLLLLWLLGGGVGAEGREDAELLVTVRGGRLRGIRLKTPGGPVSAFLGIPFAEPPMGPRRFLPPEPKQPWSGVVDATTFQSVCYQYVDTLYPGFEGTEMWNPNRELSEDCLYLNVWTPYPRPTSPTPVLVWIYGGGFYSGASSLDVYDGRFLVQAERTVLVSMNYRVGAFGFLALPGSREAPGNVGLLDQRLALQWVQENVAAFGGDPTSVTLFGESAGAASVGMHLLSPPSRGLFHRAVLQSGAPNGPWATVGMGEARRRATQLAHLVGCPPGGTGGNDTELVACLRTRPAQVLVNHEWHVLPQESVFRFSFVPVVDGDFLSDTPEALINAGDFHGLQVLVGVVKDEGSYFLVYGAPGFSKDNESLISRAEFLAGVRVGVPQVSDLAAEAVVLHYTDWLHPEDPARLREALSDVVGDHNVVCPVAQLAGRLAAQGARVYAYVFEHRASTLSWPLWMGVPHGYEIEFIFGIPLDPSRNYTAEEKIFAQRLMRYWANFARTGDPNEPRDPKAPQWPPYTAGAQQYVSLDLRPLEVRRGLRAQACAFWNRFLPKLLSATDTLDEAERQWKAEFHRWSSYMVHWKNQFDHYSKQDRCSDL
Sequence of Acetylcholinesterase (Electrophorus electricus, UniProt O42275) (O42275 whole entry): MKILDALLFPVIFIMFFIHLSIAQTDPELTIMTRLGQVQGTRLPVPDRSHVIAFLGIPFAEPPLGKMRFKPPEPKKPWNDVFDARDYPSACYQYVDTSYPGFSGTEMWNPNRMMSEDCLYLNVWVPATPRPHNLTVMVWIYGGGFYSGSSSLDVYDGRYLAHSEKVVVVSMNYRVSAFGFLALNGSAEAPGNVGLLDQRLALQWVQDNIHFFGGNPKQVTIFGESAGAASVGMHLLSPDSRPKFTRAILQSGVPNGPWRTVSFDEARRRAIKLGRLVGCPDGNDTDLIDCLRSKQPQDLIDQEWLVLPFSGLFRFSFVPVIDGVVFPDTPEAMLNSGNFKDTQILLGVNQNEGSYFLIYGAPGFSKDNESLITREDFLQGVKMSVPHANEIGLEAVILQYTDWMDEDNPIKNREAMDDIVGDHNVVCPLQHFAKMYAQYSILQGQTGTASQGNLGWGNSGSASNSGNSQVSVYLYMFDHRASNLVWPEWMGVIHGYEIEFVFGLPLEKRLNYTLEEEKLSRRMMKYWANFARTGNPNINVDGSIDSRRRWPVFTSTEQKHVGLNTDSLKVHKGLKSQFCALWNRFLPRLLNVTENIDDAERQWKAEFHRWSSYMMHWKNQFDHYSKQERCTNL

Regarding `NC1CCN(Cc2ccccc2)CC1`, the inhibition result in data set [1] and in data set [2] was “inactive” throughout.
In the case of `COc1cc(/C=C/C(=O)NCCC2CCN(Cc3ccccc3)CC2)cc(OC)c1O`, the inhibition result in data set [3] and in data set [14] was “Active” in each case. Further, the result in [4] was Active. The Activity entry in data set [5] was “Active”; in data set [6], “Not Active”; in [13] it was “Not Active”; in data set [17] it was “Non-toxic”; in data set [18] it was “Not Active”. Further, the Ratio IC50 amounted to 3.8 in [7] and 2.2 in data set [10]. Also, the IC50 in [8] was 24.9 µM; in data set [9] it was 0.976 µM; in [11] it was 0.398 µM; in data set [12], 1.22 µM; in data set [16] it was 0.321 µM. Besides, the apparent permeability (Papp) at 16 h, 5 mg/mL in data set [15] turned out to be 7.68 ×10⁻⁶ cm/s.
Consider `O=C(/C=C/c1ccc(O)c(O)c1)NCCC1CCN(Cc2ccccc2)CC1`, for which the result in [4] was Active. Further, the values for the Ratio IC50 in [7] and in data set [10] were 100 and 31.9, respectively. Besides, the IC50 in [8] came out at 10.7 µM; in data set [9], 165 µM; in data set [11] it was 5.17 µM; in data set [12], 145 µM; in data set [16], 1.45 µM. For the same molecule, in data set [15], the Papp at 16 h, 5 mg/mL is 5.38 ×10⁻⁶ cm/s. Besides, in data set [17], the Activity entry is “Non-toxic”.
`COc1cc(/C=C/C(=O)O)ccc1O` [FERULATE]: the inhibition result in data set [1] and in [2] was “inactive” throughout. Further, in [8], 30.6 µM corresponded to half-maximal inhibition (IC50). Besides, in data set [10], the Ratio IC50 came to 4.95.
`COc1cc(/C=C/C(=O)CC(=O)/C=C/c2ccc(O)c(OC)c2)ccc1O` [CURCUMIN]: the inhibition result in [1] and in [2] was “inactive” in each case. In data set [8], this molecule displayed an IC50 of 23.3 µM. In addition, the Ratio IC50 in [10] was found to be 4.43.
